Measurements: ChEMBL document CHEMBL1201862, “PubChem BioAssay data set” (2004)
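How tested: cells in 96-well plates exposed to compound for 48 hours at five concentrations. GI50 marks 50% less growth.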 Calls of active or inactive are those of the source. Rule as the data show it: active = GI50 up to about 1.1 µM and inactive = higher.

What was measured:
Assay in all cases: DTP human tumour cell line panel, 48 h
DLD-1 = test system: DLD-1
UACC-257 = test system: UACC-257
A498 = test system: A498
SW-620 = test system: SW-620
SR = test system: SR
RXF 631 = test system: RXF 631
SN12C = test system: SN12C
LXFL 529 = test system: LXFL 529
Malme-3M = test system: Malme-3M
U-251 = test system: U-251
CCRF-CEM = test system: CCRF-CEM
NCI-H226 = test system: NCI-H226
MOLT-4 = test system: MOLT-4
SK-MEL-5 = test system: SK-MEL-5
KM-20L2 = test system: KM-20L2
SNB-78 = test system: SNB-78
DMS-114 = test system: DMS-114
RPMI-8226 = test system: RPMI-8226
HCT-15 = test system: HCT-15
HT-29 = test system: HT-29
UO-31 = test system: UO-31
SK-MEL-28 = test system: SK-MEL-28
M14 = test system: M14
LOX IMVI = test system: LOX IMVI
HOP-92 = test system: HOP-92
NCI-H23 = test system: NCI-H23
TK-10 = test system: TK-10
HCT-116 = test system: HCT-116
A549 = test system: A549
SF-295 = test system: SF-295
HL-60 = test system: HL-60
ACHN = test system: ACHN
786-0 = test system: 786-0
SF-268 = test system: SF-268
SNB-19 = test system: SNB-19
OVCAR-3 = test system: OVCAR-3
EKVX = test system: EKVX
M19-MEL = test system: M19-MEL
OVCAR-8 = test system: OVCAR-8
DMS-273 = test system: DMS-273
NCI-H460 = test system: NCI-H460
SF-539 = test system: SF-539
UACC-62 = test system: UACC-62
SK-MEL-2 = test system: SK-MEL-2
OVCAR-4 = test system: OVCAR-4
SNB-75 = test system: SNB-75
OVCAR-5 = test system: OVCAR-5
IGROV-1 = test system: IGROV-1
HCC 2998 = test system: HCC 2998
CAKI-1 = test system: CAKI-1
RXF 393 = test system: RXF 393
K562 = test system: K562
COLO 205 = test system: COLO 205
HOP-62 = test system: HOP-62
NCI-H522 = test system: NCI-H522
KM12 = test system: KM12
SK-OV-3 = test system: SK-OV-3

Q: With `CCc1cccc(C(C)CC)c1NC(=O)CC1C(=O)Nc2ccccc2[S+]1[O-]` (configuration not stated) as the compound, how does the GI50 (DLD-1) read?
A: 32.8 µM (inactive)

Q: What about the GI50 (UACC-257) of the same compound?
A: > 100 µM (inactive)

Q: And the GI50 (A498)?
A: 37.2 µM (inactive)

Q: And the GI50 (SW-620)?
A: 39.5 µM (inactive)

Q: What about the GI50 (SR) of the same compound?
A: 30 µM (inactive)

Q: And the GI50 (RXF 631)?
A: 36.1 µM (inactive)

Q: And the GI50 (SN12C)?
A: 91.2 µM (inactive)

Q: What about the GI50 (LXFL 529) of the same compound?
A: 31.4 µM (inactive)

Q: And the GI50 (Malme-3M)?
A: 37.2 µM (inactive)

Q: And the GI50 (U-251)?
A: 14.9 µM (inactive)

Q: What about the GI50 (CCRF-CEM) of the same compound?
A: 24.8 µM (inactive)

Q: And the GI50 (NCI-H226)?
A: > 100 µM (inactive)

Q: What about the GI50 (MOLT-4) of the same compound?
A: 14.9 µM (inactive)

Q: What about the GI50 (SK-MEL-5) of the same compound?
A: 27.2 µM (inactive)

Q: And the GI50 (KM-20L2)?
A: 61.2 µM (inactive)

Q: And the GI50 (SNB-78)?
A: 28.8 µM (inactive)

Q: And the GI50 (DMS-114)?
A: 28.2 µM (inactive)

Q: What about the GI50 (RPMI-8226) of the same compound?
A: 31.3 µM (inactive)

Q: And the GI50 (HCT-15)?
A: 31 µM

Q: And the GI50 (HT-29)?
A: 23.1 µM (inactive)

Q: What about the GI50 (UO-31) of the same compound?
A: > 100 µM (inactive)

Q: What about the GI50 (SK-MEL-28) of the same compound?
A: 26.1 µM (inactive)

Q: What about the GI50 (M14) of the same compound?
A: 22 µM (inactive)

Q: And the GI50 (LOX IMVI)?
A: 28.2 µM (inactive)

Q: What about the GI50 (HOP-92) of the same compound?
A: 16.7 µM (inactive)

Q: And the GI50 (NCI-H23)?
A: 58.2 µM (inactive)

Q: What about the GI50 (TK-10) of the same compound?
A: > 100 µM (inactive)

Q: And the GI50 (HCT-116)?
A: 31.3 µM (inactive)

Q: What about the GI50 (A549) of the same compound?
A: 31.8 µM (inactive)

Q: What about the GI50 (SF-295) of the same compound?
A: > 100 µM (inactive)

Q: And the GI50 (HL-60)?
A: 49.4 µM (inactive)

Q: And the GI50 (ACHN)?
A: 44.2 µM (inactive)

Q: And the GI50 (786-0)?
A: 37.4 µM (inactive)

Q: What about the GI50 (SF-268) of the same compound?
A: 40.9 µM (inactive)

Q: And the GI50 (SNB-19)?
A: 28.5 µM (inactive)

Q: What about the GI50 (OVCAR-3) of the same compound?
A: 50.7 µM (inactive)

Q: And the GI50 (EKVX)?
A: > 100 µM (inactive)

Q: What about the GI50 (M19-MEL) of the same compound?
A: 32.8 µM (inactive)

Q: What about the GI50 (OVCAR-8) of the same compound?
A: 95.7 µM (inactive)

Q: And the GI50 (DMS-273)?
A: 34 µM (inactive)

Q: What about the GI50 (NCI-H460) of the same compound?
A: 29.4 µM (inactive)

Q: What about the GI50 (SF-539) of the same compound?
A: 23 µM (inactive)

Q: And the GI50 (UACC-62)?
A: 10 µM (inactive)

Q: What about the GI50 (SK-MEL-2) of the same compound?
A: 40.5 µM (inactive)

Q: What about the GI50 (OVCAR-4) of the same compound?
A: 18.3 µM (inactive)

Q: And the GI50 (SNB-75)?
A: 22.4 µM (inactive)

Q: What about the GI50 (OVCAR-5) of the same compound?
A: 33.1 µM (inactive)

Q: What about the GI50 (IGROV-1) of the same compound?
A: 19.9 µM (inactive)

Q: What about the GI50 (HCC 2998) of the same compound?
A: > 100 µM (inactive)

Q: What about the GI50 (CAKI-1) of the same compound?
A: 26.4 µM (inactive)

Q: What about the GI50 (RXF 393) of the same compound?
A: 13.9 µM (inactive)

Q: And the GI50 (K562)?
A: 42.3 µM (inactive)

Q: Which GI50 (DLD-1) does the source give for `O=C(/C=C/c1ccc(OCCCOc2ccc(/C=C/C(=O)c3ccccc3)cc2)cc1)c1ccccc1` here?
A: > 100 µM (inactive)

Q: And the GI50 (UACC-257)?
A: > 100 µM (inactive)

Q: What about the GI50 (A498) of the same compound?
A: > 100 µM (inactive)

Q: What about the GI50 (SW-620) of the same compound?
A: > 100 µM (inactive)

Q: And the GI50 (SR)?
A: > 100 µM (inactive)

Q: And the GI50 (RXF 631)?
A: 51.2 µM (inactive)

Q: And the GI50 (SN12C)?
A: > 100 µM (inactive)

Q: What about the GI50 (COLO 205) of the same compound?
A: > 100 µM (inactive)

Q: And the GI50 (LXFL 529)?
A: > 100 µM (inactive)

Q: And the GI50 (Malme-3M)?
A: > 100 µM (inactive)

Q: And the GI50 (U-251)?
A: > 10 µM (inactive)

Q: What about the GI50 (CCRF-CEM) of the same compound?
A: > 100 µM (inactive)

Q: And the GI50 (NCI-H226)?
A: 36.3 µM (inactive)

Q: What about the GI50 (HOP-62) of the same compound?
A: > 100 µM (inactive)

Q: And the GI50 (MOLT-4)?
A: > 100 µM (inactive)

Q: And the GI50 (SK-MEL-5)?
A: > 100 µM (inactive)

Q: What about the GI50 (KM-20L2) of the same compound?
A: > 100 µM (inactive)

Q: What about the GI50 (DMS-114) of the same compound?
A: > 100 µM (inactive)

Q: And the GI50 (RPMI-8226)?
A: 50.7 µM (inactive)

Q: And the GI50 (HCT-15)?
A: > 100 µM

Q: What about the GI50 (HT-29) of the same compound?
A: > 100 µM (inactive)

Q: What about the GI50 (UO-31) of the same compound?
A: > 100 µM (inactive)

Q: What about the GI50 (SK-MEL-28) of the same compound?
A: > 100 µM (inactive)

Q: What about the GI50 (M14) of the same compound?
A: > 100 µM (inactive)

Q: And the GI50 (LOX IMVI)?
A: > 100 µM (inactive)

Q: What about the GI50 (NCI-H23) of the same compound?
A: > 100 µM (inactive)

Q: What about the GI50 (TK-10) of the same compound?
A: > 100 µM (inactive)

Q: And the GI50 (HCT-116)?
A: 77.4 µM (inactive)

Q: What about the GI50 (A549) of the same compound?
A: > 100 µM (inactive)

Q: What about the GI50 (SF-295) of the same compound?
A: > 100 µM (inactive)

Q: What about the GI50 (HL-60) of the same compound?
A: > 100 µM (inactive)

Q: And the GI50 (ACHN)?
A: > 100 µM (inactive)

Q: What about the GI50 (786-0) of the same compound?
A: 57.4 µM (inactive)

Q: What about the GI50 (SF-268) of the same compound?
A: > 100 µM (inactive)

Q: And the GI50 (SNB-19)?
A: 63.2 µM (inactive)

Q: What about the GI50 (OVCAR-3) of the same compound?
A: > 100 µM (inactive)

Q: What about the GI50 (EKVX) of the same compound?
A: > 100 µM (inactive)

Q: What about the GI50 (M19-MEL) of the same compound?
A: > 100 µM (inactive)

Q: And the GI50 (OVCAR-8)?
A: > 100 µM (inactive)

Q: And the GI50 (DMS-273)?
A: > 100 µM (inactive)

Q: And the GI50 (NCI-H460)?
A: > 100 µM (inactive)

Q: What about the GI50 (SF-539) of the same compound?
A: > 100 µM (inactive)

Q: And the GI50 (UACC-62)?
A: > 100 µM (inactive)

Q: What about the GI50 (SK-MEL-2) of the same compound?
A: > 100 µM (inactive)

Q: And the GI50 (OVCAR-4)?
A: > 100 µM (inactive)

Q: What about the GI50 (SNB-75) of the same compound?
A: 33.4 µM (inactive)

Q: And the GI50 (IGROV-1)?
A: > 100 µM (inactive)

Q: And the GI50 (HCC 2998)?
A: > 100 µM (inactive)

Q: And the GI50 (RXF 393)?
A: > 100 µM (inactive)

Q: What about the GI50 (K562) of the same compound?
A: > 100 µM (inactive)

Q: Which results are given for `COc1ccc(C(=O)O)c2c(=O)c3cccnc3[nH]c12`?
A: GI50 (UACC-257): > 100 µM (inactive); GI50 (A498): > 100 µM (inactive); GI50 (SR): > 100 µM (inactive); GI50 (RXF 631): > 100 µM (inactive); GI50 (U-251): > 100 µM (inactive); GI50 (CCRF-CEM): > 100 µM (inactive); GI50 (HOP-62): > 100 µM (inactive); GI50 (MOLT-4): > 100 µM (inactive); GI50 (KM-20L2): > 100 µM (inactive); GI50 (SNB-78): > 100 µM (inactive); GI50 (DMS-114): > 100 µM (inactive); GI50 (HT-29): > 100 µM (inactive); GI50 (UO-31): > 100 µM (inactive); GI50 (SK-MEL-28): > 100 µM (inactive); GI50 (M14): > 100 µM (inactive); GI50 (HOP-92): > 100 µM (inactive); GI50 (NCI-H23): > 100 µM (inactive); GI50 (TK-10): > 100 µM (inactive); GI50 (HCT-116): > 100 µM (inactive); GI50 (A549): > 100 µM (inactive); GI50 (SF-295): > 100 µM (inactive); GI50 (HL-60): > 100 µM (inactive); GI50 (ACHN): > 100 µM (inactive); GI50 (SNB-19): > 100 µM (inactive); GI50 (EKVX): > 100 µM (inactive); GI50 (NCI-H522): > 100 µM (inactive); GI50 (M19-MEL): > 100 µM (inactive); GI50 (KM12): > 100 µM (inactive); GI50 (OVCAR-8): > 100 µM (inactive); GI50 (NCI-H460): > 100 µM (inactive); GI50 (SK-OV-3): > 100 µM (inactive); GI50 (UACC-62): 46.1 µM (inactive); GI50 (OVCAR-5): > 100 µM (inactive); GI50 (IGROV-1): > 100 µM (inactive); GI50 (RXF 393): > 100 µM (inactive)
